Patent US20050032096A1, “Methods for predicting drug sensitivity in patients afflicted with hypertension” (deCODE genetics ehf., priority 2003, published 2005)

Experiments:
[1] = test system: hypertensive patients; experiment: Clinical response to 8 weeks of drug therapy, patients categorized as responders or non-responders; assay type: in vivo, human; details: 8 weeks therapy; for patients who demonstrate a clinical response (responders): BP reduced by 10 mm/Hg systole and/or 6 mm/Hg diastole or more
From the text: • a. Hypertension diagnosed by a Cardiologist. The method used to diagnose hypertension is based on the ICE-9 and ICD-10 classification system, and concurs with the diagnostic hypertension criteria outlined by the American Heart Association and includes the following measures: Blood pressure greater than 140 systolic and 90 diastolic (adult person). For this study, individuals will be recruited primarily with moderate to severe hypertension. • b. Patients with hypertension with a severity level that is judged to be appropriate to treatment with Ramace™ were recruited to participate in the study. Study patients signed a consent and donate a blood sample for the study. • c. Phenotype was confirmed by measurement of blood pressure levels at different time points. • d. Age 12-80 years. • e. Both males and females were recruited. • f. White Caucasian (Icelandic hypertensive patient population). • g. Ramace™ therapy for 8 weeks. Examination by a study cardiologist every 3 weeks who confirmed clinical response to Ramace™ therapy. • h. Response to Ramace™: Patients were categorized as either Ramace™ responders or Ramace™ non-responders. […] The same cardiologists examined all 57 patients before and after Ramace™ trial.
All patients recruited were treated with therapeutic doses of Ramace™ for minimum of 8 weeks and examined by the study cardiologist before and after starting the drug. Blood samples were drawn at a similar time (e.g., around 9 AM) in the morning from all patients. The dose of the ACE inhibitor was recorded for all patients, before and 4 weeks after the patient was started on the study drug. No diet restrictions are implemented.
(§1) • a. Hypertension diagnosed by a Cardiologist. The method used to diagnose hypertension is based on the ICE-9 and ICD-10 classification system, and concurs with the diagnostic hypertension criteria outlined by the American Heart Association and includes the following measures: Blood pressure greater than 140 systolic and 90 diastolic (adult person). For this study, individuals will be recruited primarily with moderate to severe hypertension. • b. Patients with hypertension with a severity level that is judged to be appropriate to treatment with Norvasc™ were recruited to participate in the study. Study patients signed a consent and donate a blood sample for the study. • c. Phenotype was confirmed by measurement of blood pressure levels at different time points. • d. Age 12-80 years. • e. Both males and females were recruited. • f. White Caucasian (Icelandic hypertensive patient population). • g. […] Response to Norvasc™: Patients were categorized as either Norvasc™ responders or Norvasc™ non-responders.
Blood samples were drawn at a similar time (e.g., around 9 AM) in the morning from all patients. The dose was recorded for all patients. No diet restrictions were implemented.
as §1, with “Cozaar™” for “Norvasc™”, “Cozaar™:” for “Norvasc™:”

[2] = test system: patients with chronic stable angina; details: placebo 4.4%, P=NS; cited from earlier work
[3] = test system: patients with low renin hypertension; details: cited from earlier work
[4] = molecular target: T1, AT1 receptor (Homo sapiens, UniProt P30556); details: cited from earlier work
T1 sequence (P30556 1-359): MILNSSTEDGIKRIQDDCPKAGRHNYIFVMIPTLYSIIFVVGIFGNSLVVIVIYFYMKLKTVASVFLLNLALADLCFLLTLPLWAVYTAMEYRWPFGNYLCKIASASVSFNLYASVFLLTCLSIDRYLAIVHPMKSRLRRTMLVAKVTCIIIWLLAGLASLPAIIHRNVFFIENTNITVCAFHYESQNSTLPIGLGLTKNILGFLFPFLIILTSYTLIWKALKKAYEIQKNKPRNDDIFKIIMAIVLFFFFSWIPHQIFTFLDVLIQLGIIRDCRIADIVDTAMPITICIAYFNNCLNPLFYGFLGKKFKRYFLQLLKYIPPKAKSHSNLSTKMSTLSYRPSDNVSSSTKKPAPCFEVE

[5] = molecular target: ACE (Homo sapiens, UniProt P12821); details: cited from earlier work
[6] = in vivo; cited from earlier work

Chain of ACE (P12821 30-1306, species assumed): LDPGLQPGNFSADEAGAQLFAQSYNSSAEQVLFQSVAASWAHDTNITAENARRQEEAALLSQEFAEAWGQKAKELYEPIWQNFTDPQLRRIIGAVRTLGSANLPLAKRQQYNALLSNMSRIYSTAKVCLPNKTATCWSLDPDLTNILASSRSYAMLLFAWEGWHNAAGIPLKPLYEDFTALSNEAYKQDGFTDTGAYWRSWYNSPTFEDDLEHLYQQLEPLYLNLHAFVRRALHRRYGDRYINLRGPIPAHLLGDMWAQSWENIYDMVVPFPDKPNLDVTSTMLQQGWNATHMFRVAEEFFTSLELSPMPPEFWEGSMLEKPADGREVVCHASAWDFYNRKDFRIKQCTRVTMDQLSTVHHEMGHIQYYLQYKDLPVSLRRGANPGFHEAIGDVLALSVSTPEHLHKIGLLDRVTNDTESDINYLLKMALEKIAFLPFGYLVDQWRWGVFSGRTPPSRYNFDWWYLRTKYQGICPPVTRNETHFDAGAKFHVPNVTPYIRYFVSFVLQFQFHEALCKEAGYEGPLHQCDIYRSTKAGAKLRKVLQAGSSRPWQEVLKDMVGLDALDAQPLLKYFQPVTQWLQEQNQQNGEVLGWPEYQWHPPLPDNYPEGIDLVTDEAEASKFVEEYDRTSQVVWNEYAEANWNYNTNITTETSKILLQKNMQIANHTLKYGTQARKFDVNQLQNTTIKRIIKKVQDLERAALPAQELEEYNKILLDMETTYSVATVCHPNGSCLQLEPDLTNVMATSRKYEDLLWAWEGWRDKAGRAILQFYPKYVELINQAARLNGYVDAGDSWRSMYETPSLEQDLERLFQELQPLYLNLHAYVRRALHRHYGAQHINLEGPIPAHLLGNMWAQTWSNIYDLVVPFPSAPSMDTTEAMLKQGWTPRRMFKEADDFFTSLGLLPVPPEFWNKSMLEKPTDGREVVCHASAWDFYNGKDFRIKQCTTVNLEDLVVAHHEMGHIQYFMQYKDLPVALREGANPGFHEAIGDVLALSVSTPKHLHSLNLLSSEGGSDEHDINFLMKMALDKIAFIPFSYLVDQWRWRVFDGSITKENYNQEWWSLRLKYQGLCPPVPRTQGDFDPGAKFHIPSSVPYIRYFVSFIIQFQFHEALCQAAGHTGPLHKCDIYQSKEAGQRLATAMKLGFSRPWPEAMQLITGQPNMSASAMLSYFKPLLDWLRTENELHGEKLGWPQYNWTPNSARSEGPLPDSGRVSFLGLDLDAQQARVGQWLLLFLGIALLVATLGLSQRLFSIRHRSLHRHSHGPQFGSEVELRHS

CCOC(=O)C1=C(COCCN)NC(C)=C(C(=O)OC)C1c1ccccc1Cl (centres unmarked) [Norvasc, amlodipine]
non-responders ([1]; of 65 hypertensive patients): 19 patients | patients who demonstrate a clinical response (responders) ([1]; of 65 hypertensive patients): 46 patients | patients who discontinued therapy due to adverse events [2]: 2%

CCOC(=O)[C@H](CCc1ccccc1)N[C@@H](C)C(=O)N1[C@H](C(=O)O)C[C@@H]2CCC[C@@H]21 [Ramace, ramipril]
non-responders ([1]; of 57 hypertensive patients): 22 patients | patients who demonstrate a clinical response (responders) ([1]; of 57 hypertensive patients): 35 patients | anti-hypertensive effect [3]: anti-hypertensive

CCCCc1nc(Cl)c(CO)n1Cc1ccc(-c2ccccc2-c2nn[nH]n2)cc1 [Cozaar, Losartan potassium]
non-responders ([1]; of 65 hypertensive patients): 18 patients | patients who demonstrate a clinical response (responders) ([1]; of 65 hypertensive patients): 47 patients | partial agonist activity at the AT1 receptor [4]: do not exhibit any partial agonist activity | inhibition of ACE [5]: Neither losartan nor its active metabolite inhibits ACE | time to mean peak serum concentration [6]: one
